According to patent US20260347373A1, “HETEROCYCLIC COMPOUNDS, COMPOSITIONS THEREOF, AND METHODS OF TREATMENT THEREWITH” (BeOne Medicines I GmbH, priority 2023, published 2026):

Columns and labels:
KRAS G12D = KRAS G12D (Homo sapiens, UniProt P01116, G12D); experiment: KRAS G12D Probe Displacement Assay (TR-FRET, GDP-loaded); type: binding; settings: KRAS G12D, read-out: KRAS^G12D Probe Displacement Assay IC50
From the text: (§1) The synthetic routes of probe 1 and 2, which have been disclosed in PCT/CN2022/070676, are hereby incorporated herein.

WT KRAS = WT KRAS (Homo sapiens, UniProt P01116); experiment: KRAS WT Probe Displacement Assay (TR-FRET, GDP-loaded); type: binding; settings: KRAS WT, read-out: KRAS^WT Probe Displacement Assay IC50
WT KRAS, sequence (P01116 1-188 isoform P01116-2): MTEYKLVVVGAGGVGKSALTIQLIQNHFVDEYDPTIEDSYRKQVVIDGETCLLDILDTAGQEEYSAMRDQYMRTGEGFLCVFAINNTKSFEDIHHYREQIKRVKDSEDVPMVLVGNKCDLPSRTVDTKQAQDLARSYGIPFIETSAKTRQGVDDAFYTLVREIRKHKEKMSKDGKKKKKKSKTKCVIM
From the text: as §1

KRAS G12D, sequence (P01116 1-188 isoform P01116-2 G12D): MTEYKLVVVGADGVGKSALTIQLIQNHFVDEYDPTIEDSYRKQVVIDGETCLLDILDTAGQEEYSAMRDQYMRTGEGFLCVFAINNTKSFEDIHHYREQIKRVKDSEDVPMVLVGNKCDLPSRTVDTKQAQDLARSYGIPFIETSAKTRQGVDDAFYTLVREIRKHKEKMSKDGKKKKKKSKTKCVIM

Structure (SMILES)	IC50 (KRAS G12D) [nM]	IC50 (WT KRAS) [nM]
COC1CCN(CC2(COc3nc4c5c(nc(-c6cc(N)cc(C)c6C(F)(F)F)c(F)c5n3)OCC[C@@H]3[C@@H]5CC[C@H](CN43)N5)CC2)CC1 [Example 110, 3-((6aR,7S,10R)-1-fluoro-13-((1-((4-methoxypiperidin-1-yl)methyl)cyclopropyl)methoxy)-5,6,6a,7,8,9,10,11-octahydro-4-oxa-3,11a,12,14,15-pentaaza-7,10-methanocyclohepta[4,5]cycloocta[1,2,3-de]naphthalen-2-yl)-5-methyl-4-(trifluoromethyl)aniline]	< 0.3	3 to 1000
Cc1cc(N)cc(-c2nc3c4c(nc(OCC56CC(F)CN5CC(F)C6)nc4c2F)N2C[C@H]4CC[C@H](N4)[C@H]2CCO3)c1C(F)(F)F (stereo partly drawn) [Example 6, 3-((6aR,7S,10R)-13-((2,6-difluorotetrahydro-1H-pyrrolizin-7a(5H)-yl)methoxy)-1-fluoro-5,6,6a,7,8,9,10,11-octahydro-4-oxa-3,11a,12,14,15-pentaaza-7,10-methanocyclohepta[4,5]cycloocta [1,2,3-de]naphthalen-2-yl)-5-methyl-4-(trifluoromethyl)aniline]	0.3 to 3	3 to 1000
Cc1cc(N)cc(-c2nc3c4c(nc(OCC5(CN6[C@@H]7CC[C@H]6COC7)CC5)nc4c2F)N2C[C@H]4CC[C@H](N4)[C@H]2CCO3)c1C(F)(F)F [Example 107, 3-((6aR,7S,10R)-13-((1-(((1R,5S)-3-oxa-8-azabicyclo [3.2.1]octan-8-yl)methyl)cyclopropyl)methoxy)-1-fluoro-5,6,6a,7,8,9,10,11-octahydro-4-oxa-3,11a,12,14,15-pentaaza-7,10-methanocyclohepta [4,5]cycloocta [1,2,3-de]naphthalen-2-yl)-5-methyl-4-(trifluoromethyl)aniline]	< 0.3	3 to 1000
Cc1cc(N)cc(-c2nc3c4c(nc(OCC5(CN6CCCC67CCOC7)CC5)nc4c2F)N2C[C@H]4CC[C@H](N4)[C@H]2CCO3)c1C(F)(F)F (stereo partly drawn) [Example 190, 3-((6aR,7S,10R)-13-((1-((7-oxa-1-azaspiro[4.4]nonan-1-yl)methyl)cyclopropyl)methoxy)-1-fluoro-5,6,6a,7,8,9,10,11-octahydro-4-oxa-3,11a,12,14,15-pentaaza[7,10]methanocyclohepta[4,5]cycloocta[1,2,3-de]naphthalen-2-yl)-5-methyl-4-(trifluoromethyl)aniline]	< 0.3	3 to 1000
Cc1cc(N)cc(-c2nc3c4c(nc(O[C@@H](C)[C@@H]5CCCN5CCF)nc4c2F)N2C[C@H]4CC[C@H](N4)[C@H]2CCO3)c1C(F)(F)F [Example 250, 3-((6aR,7S,10R)-1-fluoro-13-((S)-1-((S)-1-(2-fluoroethyl)pyrrolidin-2-yl)ethoxy)-5,6,6a,7,8,9,10,11-octahydro-4-oxa-3,11a,12,14,15-pentaaza-7,10-methanocyclohepta[4,5]cycloocta[1,2,3-de]naphthalen-2-yl)-5-methyl-4-(trifluoromethyl)aniline]	< 0.3	3 to 1000
C[C@H](Oc1nc2c3c(nc(-c4cc(N)cc(Cl)c4C(F)(F)F)c(F)c3n1)OCC[C@@H]1[C@@H]3CC[C@H](CN21)N3)[C@@H]1CCCN1C [Example 140, 3-chloro-5-((6aR,7S,10R)-1-fluoro-13-((S)-1-((S)-1-methylpyrrolidin-2-yl)ethoxy)-5,6,6a,7,8,9,10,11-octahydro-4-oxa-3,11a,12,14,15-pentaaza-7,10-methano-cyclohepta[4,5]cycloocta [1,2,3-de]naphthalen-2-yl)-4-(trifluoromethyl)aniline]	< 0.3	3 to 1000
CO[C@H]1CCN(C)[C@@H]1C(C)Oc1nc2c3c(nc(-c4cc(N)cc(C)c4C(F)(F)F)c(F)c3n1)OCC[C@@H]1[C@@H]3CC[C@H](CN21)N3 (single isomer, unassigned) [Example 75]	< 0.3	3 to 1000
Cc1cc(N)cc(-c2nc3c4c(nc(O[C@@H](C)[C@@H]5CCCN5C5CCOC5)nc4c2F)N2C[C@H]4CC[C@H](N4)[C@H]2CCO3)c1C(F)(F)F (single isomer, unassigned) [Example 228]	< 0.3	3 to 1000
